± gives the expanded uncertainty stated by the source.
Assays:
[1] = 323.15 K; Liquid; mass and volume balance equations
[2] = excess molar enthalpy (molar enthalpy of mixing); xn = mol fraction of the nth substance listed; settings: 323.15 K, Liquid, Flow calorimetry

c1ccccc1 [benzene]
Settings | vapor or sublimation pressure [kPa]
[1] | 35.47 ± 0.11

C=CCCCCCCCC [1-decene] + COC
[2]
Settings | excess molar enthalpy [kJ/mol]
x2 = 0.1265 | 0.13 ± 0.0043
x2 = 0.2342 | 0.232 ± 0.0052
x2 = 0.3269 | 0.3 ± 0.0066
x2 = 0.4076 | 0.345 ± 0.0076
x2 = 0.4784 | 0.367 ± 0.008
x2 = 0.5411 | 0.378 ± 0.0083
x2 = 0.5971 | 0.378 ± 0.0083
x2 = 0.6472 | 0.367 ± 0.008
x2 = 0.6924 | 0.351 ± 0.0077
x2 = 0.7335 | 0.329 ± 0.0072
x2 = 0.7708 | 0.301 ± 0.0067
x2 = 0.805 | 0.272 ± 0.006
x2 = 0.8363 | 0.241 ± 0.0054
x2 = 0.8652 | 0.207 ± 0.0047
x2 = 0.892 | 0.174 ± 0.0044
x2 = 0.9167 | 0.139 ± 0.0043
x2 = 0.9397 | 0.103 ± 0.0043
x2 = 0.9612 | 0.0682 ± 0.0042
x2 = 0.9812 | 0.0337 ± 0.0041

COC [dimethyl ether] + CCCCCCCCCC
[2]
Settings | excess molar enthalpy [kJ/mol]
x1 = 0.1299 | 0.237 ± 0.0053
x1 = 0.2396 | 0.409 ± 0.0089
x1 = 0.3336 | 0.526 ± 0.011
x1 = 0.4149 | 0.597 ± 0.013
x1 = 0.486 | 0.637 ± 0.014
x1 = 0.5487 | 0.654 ± 0.014
x1 = 0.6043 | 0.651 ± 0.014
x1 = 0.6541 | 0.634 ± 0.014
x1 = 0.6989 | 0.607 ± 0.013
x1 = 0.7393 | 0.571 ± 0.012
x1 = 0.7761 | 0.526 ± 0.011
x1 = 0.8097 | 0.479 ± 0.01
x1 = 0.8405 | 0.425 ± 0.0093
x1 = 0.8687 | 0.371 ± 0.0081
x1 = 0.8948 | 0.313 ± 0.0069
x1 = 0.919 | 0.252 ± 0.0056
x1 = 0.9414 | 0.19 ± 0.0045
x1 = 0.9623 | 0.127 ± 0.0043
x1 = 0.9818 | 0.0628 ± 0.0042

COC [dimethyl ether] + c1ccccc1
[2]
Settings | excess molar enthalpy [kJ/mol]
x1 = 0.0637 | -0.0334 ± 0.0041
x1 = 0.1256 | -0.064 ± 0.0042
x1 = 0.1857 | -0.0945 ± 0.0042
x1 = 0.2442 | -0.12 ± 0.004
x1 = 0.3011 | -0.141 ± 0.004
x1 = 0.3565 | -0.16 ± 0.004
x1 = 0.4104 | -0.176 ± 0.004
x1 = 0.4628 | -0.188 ± 0.005
x1 = 0.514 | -0.196 ± 0.005
x1 = 0.5638 | -0.2 ± 0.005
x1 = 0.6124 | -0.2 ± 0.005
x1 = 0.6597 | -0.197 ± 0.005
x1 = 0.7059 | -0.189 ± 0.005
x1 = 0.751 | -0.179 ± 0.004
x1 = 0.795 | -0.161 ± 0.004
x1 = 0.8379 | -0.141 ± 0.004
x1 = 0.8799 | -0.115 ± 0.004
x1 = 0.9208 | -0.0818 ± 0.0042
x1 = 0.9609 | -0.0435 ± 0.0041

COC [dimethyl ether] + CCCCCCCCCCCC
[2]
Settings | excess molar enthalpy [kJ/mol]
x1 = 0.1484 | 0.28 ± 0.0062
x1 = 0.269 | 0.466 ± 0.01
x1 = 0.3688 | 0.585 ± 0.013
x1 = 0.4529 | 0.658 ± 0.014
x1 = 0.5247 | 0.688 ± 0.015
x1 = 0.5866 | 0.697 ± 0.015
x1 = 0.6407 | 0.687 ± 0.015
x1 = 0.6882 | 0.66 ± 0.014
x1 = 0.7304 | 0.625 ± 0.014
x1 = 0.7681 | 0.583 ± 0.013
x1 = 0.8019 | 0.532 ± 0.012
x1 = 0.8324 | 0.48 ± 0.01
x1 = 0.8601 | 0.424 ± 0.0092
x1 = 0.8854 | 0.365 ± 0.008
x1 = 0.9085 | 0.306 ± 0.0068
x1 = 0.9298 | 0.247 ± 0.0055
x1 = 0.9494 | 0.185 ± 0.0045
x1 = 0.9675 | 0.124 ± 0.0043
x1 = 0.9844 | 0.0607 ± 0.0042

CCCCCCCCCCCC [dodecane]
Settings | vapor or sublimation pressure [kPa]
[1] | 0.2 ± 0.04

Cc1ccccc1 [toluene]
Settings | vapor or sublimation pressure [kPa]
[1] | 12.22 ± 0.05

O [water]
Settings | vapor or sublimation pressure [kPa]
[1] | 12.29 ± 0.05

C=CCCCCCC [oct-1-ene]
Settings | vapor or sublimation pressure [kPa]
[1] | 8.3 ± 0.05

C=CCCCCCC [oct-1-ene] + COC
[2]
Settings | excess molar enthalpy [kJ/mol]
x2 = 0.1071 | 0.104 ± 0.0043
x2 = 0.2021 | 0.187 ± 0.0045
x2 = 0.2868 | 0.248 ± 0.0055
x2 = 0.363 | 0.291 ± 0.0064
x2 = 0.4317 | 0.317 ± 0.007
x2 = 0.4941 | 0.331 ± 0.0073
x2 = 0.551 | 0.335 ± 0.0074
x2 = 0.6031 | 0.332 ± 0.0073
x2 = 0.6509 | 0.322 ± 0.0071
x2 = 0.695 | 0.307 ± 0.0068
x2 = 0.7358 | 0.284 ± 0.0063
x2 = 0.7737 | 0.26 ± 0.0058
x2 = 0.8089 | 0.233 ± 0.0052
x2 = 0.8417 | 0.203 ± 0.0046
x2 = 0.8724 | 0.174 ± 0.0044
x2 = 0.9011 | 0.14 ± 0.0043
x2 = 0.9281 | 0.106 ± 0.0043
x2 = 0.9535 | 0.071 ± 0.0042
x2 = 0.9774 | 0.0352 ± 0.0041

CCCCCCCCCC [decane]
Settings | vapor or sublimation pressure [kPa]
[1] | 1.18 ± 0.04

COC [dimethyl ether] + O
[2]
Settings | excess molar enthalpy [kJ/mol]
x1 = 0.0137 | -0.132 ± 0.004
x1 = 0.0363 | -0.317 ± 0.007
x1 = 0.0808 | -0.543 ± 0.012
x1 = 0.1366 | -0.646 ± 0.014
x1 = 0.2087 | -0.547 ± 0.012
x1 = 0.3054 | -0.399 ± 0.009
x1 = 0.4418 | -0.188 ± 0.005
x1 = 0.5543 | -0.0147 ± 0.0041
x1 = 0.6487 | 0.132 ± 0.004
x1 = 0.7036 | 0.216 ± 0.005
x1 = 0.7649 | 0.308 ± 0.007
x1 = 0.8337 | 0.413 ± 0.009
x1 = 0.8713 | 0.4 ± 0.009
x1 = 0.9114 | 0.348 ± 0.008
x1 = 0.9542 | 0.243 ± 0.005

COC [dimethyl ether]
Settings | vapor or sublimation pressure
[1] | 1144.2 ± 3.5 kPa [middle of 6 runs]

COC [dimethyl ether] + Cc1ccccc1
[2]
Settings | excess molar enthalpy [kJ/mol]
x1 = 0.0753 | -0.0488 ± 0.0041
x1 = 0.1467 | -0.0906 ± 0.0042
x1 = 0.2145 | -0.128 ± 0.004
x1 = 0.279 | -0.158 ± 0.004
x1 = 0.3403 | -0.18 ± 0.004
x1 = 0.3988 | -0.199 ± 0.005
x1 = 0.4545 | -0.213 ± 0.005
x1 = 0.5078 | -0.223 ± 0.005
x1 = 0.5587 | -0.226 ± 0.005
x1 = 0.6075 | -0.228 ± 0.005
x1 = 0.6541 | -0.224 ± 0.005
x1 = 0.6989 | -0.216 ± 0.005
x1 = 0.7419 | -0.206 ± 0.005
x1 = 0.7831 | -0.19 ± 0.005
x1 = 0.8228 | -0.17 ± 0.004
x1 = 0.8609 | -0.147 ± 0.004
x1 = 0.8976 | -0.118 ± 0.004
x1 = 0.933 | -0.0831 ± 0.0042
x1 = 0.9671 | -0.0443 ± 0.0041
